In the assay the test system is MV-4-11 cells. The assay can be described thus: Gene expression microarray analysis (Affymetrix PrimeView) and GSEA. The class given is cell-based, human. Also on record: RFU PODN (11730768_x_at) / Fold change /veh PODN (11730768_x_at) / RFU LINC00158 (11744669_a_at) / Fold change /veh LINC00158 (11744669_a_at) / RFU DUSP10 (11751237_a_at) / Fold change /veh DUSP10 (11751237_a_at) / RFU ID3 (11757404_x_at) / Fold change /veh ID3 (11757404_x_at) / RFU PLEKHG5 (11737974_s_at) / Fold change /veh PLEKHG5 (11737974_s_at) / RFU LRRC4B (11730491_at) / Fold change /veh LRRC4B (11730491_at) / RFU GIMAP4 (11747438_a_at) / Fold change /veh GIMAP4 (11747438_a_at) / RFU KRT8 (11758183_x_at) / Fold change /veh KRT8 (11758183_x_at) / RFU CNN1 (11734310_a_at) / Fold change /veh CNN1 (11734310_a_at) / RFU VPS37D (11726825_at) / Fold change /veh VPS37D (11726825_at) / RFU C10orf10 (11716522_x_at) / Fold change /veh C10orf10 (11716522_x_at) / RFU KIR2DL2 /// KIR2DL4 /// KIR2DL5A /// KIR2DL5B /// KIR2DS1 /// KIR2DS2 /// KIR2DS3 /// KIR2DS4 /// KIR3DL3 /// KIR3DL3 /// KIR3DS1 (11738374_at) / Fold change /veh KIR2DL2 /// KIR2DL4 /// KIR2DL5A /// KIR2DL5B /// KIR2DS1 /// KIR2DS2 /// KIR2DS3 /// KIR2DS4 /// KIR3DL3 /// KIR3DL3 /// KIR3DS1 (11738374_at) / RFU C1QL1 (11718748_at) / Fold change /veh C1QL1 (11718748_at) / RFU TMPRSS4 (11747572_a_at) / Fold change /veh TMPRSS4 (11747572_a_at) / RFU HAMP (11756126_x_at) / Fold change /veh HAMP (11756126_x_at) / RFU RNFT2 (11725882_a_at) / Fold change /veh RNFT2 (11725882_a_at) / RFU NR4A2 (11747474_a_at) / Fold change /veh NR4A2 (11747474_a_at) / RFU ABCC12 (11746883_a_at) / Fold change /veh ABCC12 (11746883_a_at) / RFU TMEM136 (11760407_x_at) / Fold change /veh TMEM136 (11760407_x_at) / RFU CLDN22 /// WWC2 (11732394_at) / Fold change /veh CLDN22 /// WWC2 (11732394_at) / RFU HLA-DPB1 (11760878_x_at) / Fold change /veh HLA-DPB1 (11760878_x_at) / RFU SPINT1 (11716480_a_at) / Fold change /veh SPINT1 (11716480_a_at) / RFU GAP43 (11754022_s_at) / Fold change /veh GAP43 (11754022_s_at) / RFU A4GNT (11735810_at) / Fold change /veh A4GNT (11735810_at) / RFU PRB3 (11715151_x_at) / Fold change /veh PRB3 (11715151_x_at) / RFU TUBB4B (11761932_at) / Fold change /veh TUBB4B (11761932_at) / RFU CAPN14 (11732068_a_at) / Fold change /veh CAPN14 (11732068_a_at) / RFU TMCC2 (11721928_a_at) / Fold change /veh TMCC2 (11721928_a_at) / RFU IRGQ (11745062_a_at) / Fold change /veh IRGQ (11745062_a_at) / RFU FAM174B (11720279_a_at) / Fold change /veh FAM174B (11720279_a_at) / RFU TMPRSS4 (11748680_a_at) / Fold change /veh TMPRSS4 (11748680_a_at) / RFU FAM212B (11763350_a_at) / Fold change /veh FAM212B (11763350_a_at) / RFU PLEKHG5 (11743358_a_at) / Fold change /veh PLEKHG5 (11743358_a_at) / RFU ZSCAN30 (11745921_a_at) / Fold change /veh ZSCAN30 (11745921_a_at) / RFU CMKLR1 (11741424_a_at) / Fold change /veh CMKLR1 (11741424_a_at) / RFU LOC101060620 /// MAPK8IP1 (11723275_at) / Fold change /veh LOC101060620 /// MAPK8IP1 (11723275_at) / RFU SPTSSB (11747773_x_at) / Fold change /veh SPTSSB (11747773_x_at) / RFU PRSS12 (11739890_at) / Fold change /veh PRSS12 (11739890_at) / RFU BIN1 (11741810_x_at) / Fold change /veh BIN1 (11741810_x_at) / RFU WNT11 (11732464_a_at) / Fold change /veh WNT11 (11732464_a_at) / RFU C10orf10 (11716521_a_at) / Fold change /veh C10orf10 (11716521_a_at) / RFU C5orf56 (11738089_at) / Fold change /veh C5orf56 (11738089_at) / RFU CYB561 (11721691_x_at) / Fold change /veh CYB561 (11721691_x_at) / RFU ANKRD19P (11752326_a_at) / Fold change /veh ANKRD19P (11752326_a_at) / RFU OR2T12 /// OR2T33 /// OR2T8 (11738714_s_at) / Fold change /veh OR2T12 /// OR2T33 /// OR2T8 (11738714_s_at) / RFU VCAN (11748164_a_at) / Fold change /veh VCAN (11748164_a_at) / RFU JSRP1 (11732532_at) / Fold change /veh JSRP1 (11732532_at) / RFU KRTAP10-11 (11738290_x_at) / Fold change /veh KRTAP10-11 (11738290_x_at) / RFU MYO3A (11730013_a_at) / Fold change /veh MYO3A (11730013_a_at) / RFU EBF3 (11725865_a_at) / Fold change /veh EBF3 (11725865_a_at) / RFU CAMK2N1 (11719241_x_at) / Fold change /veh CAMK2N1 (11719241_x_at) / RFU C5orf56 (11738088_a_at) / Fold change /veh C5orf56 (11738088_a_at) / RFU OLFML3 (11715873_a_at) / Fold change /veh OLFML3 (11715873_a_at) / RFU LOC100653217 /// NTM (11731650_a_at) / Fold change /veh LOC100653217 /// NTM (11731650_a_at) / RFU MAPK11 (11762145_a_at) / Fold change /veh MAPK11 (11762145_a_at) / RFU FIZ1 (11724087_x_at) / Fold change /veh FIZ1 (11724087_x_at) / RFU OASL (11726364_x_at) / Fold change /veh OASL (11726364_x_at) / RFU SOX15 (11748057_x_at) / Fold change /veh SOX15 (11748057_x_at) / RFU CD79A (11719716_a_at) / Fold change /veh CD79A (11719716_a_at) / RFU HIST1H1D (11736915_at) / Fold change /veh HIST1H1D (11736915_at) / RFU CASKIN2 (11723855_a_at) / Fold change /veh CASKIN2 (11723855_a_at) / RFU LOC730098 (11760151_x_at) / Fold change /veh LOC730098 (11760151_x_at) / RFU OR4N2 (11742367_at) / Fold change /veh OR4N2 (11742367_at) / RFU PRRT2 (11749266_a_at) / Fold change /veh PRRT2 (11749266_a_at) / RFU SNX32 (11753110_a_at) / Fold change /veh SNX32 (11753110_a_at) / RFU CDHR5 (11726645_a_at) / Fold change /veh CDHR5 (11726645_a_at) / RFU RCAN1 (11760418_a_at) / Fold change /veh RCAN1 (11760418_a_at) / RFU FAM167A (11723789_a_at) / Fold change /veh FAM167A (11723789_a_at) / RFU FAM26E (11764081_at) / Fold change /veh FAM26E (11764081_at) / RFU ISYNA1 (11749810_s_at) / Fold change /veh ISYNA1 (11749810_s_at) / RFU ACY1 (11761880_at) / Fold change /veh ACY1 (11761880_at) / RFU 11764098_at / Fold change /veh 11764098_at / RFU SAMD14 (11745864_x_at) / Fold change /veh SAMD14 (11745864_x_at) / RFU NPB (11741838_a_at) / Fold change /veh NPB (11741838_a_at) / RFU TMPRSS6 (11731388_a_at) / Fold change /veh TMPRSS6 (11731388_a_at) / RFU KRTAP10-2 (11738614_at) / Fold change /veh KRTAP10-2 (11738614_at) / RFU ARHGAP8 /// PRR5-ARHGAP8 (11727945_x_at) / Fold change /veh ARHGAP8 /// PRR5-ARHGAP8 (11727945_x_at) / RFU KRTAP5-7 /// NADSYN1 (11734609_at) / Fold change /veh KRTAP5-7 /// NADSYN1 (11734609_at) / RFU RASL12 (11751679_a_at) / Fold change /veh RASL12 (11751679_a_at) / RFU CDKN2B (11736163_a_at) / Fold change /veh CDKN2B (11736163_a_at) / RFU PRF1 (11729649_at) / Fold change /veh PRF1 (11729649_at) / RFU, ZNF638 /// ZNF638-IT1 / Fold change vs veh, ZNF638 /// ZNF638-IT1 / RFU, PANK3 / Fold change vs veh, PANK3 / RFU, SH3YL1 / Fold change vs veh, SH3YL1 / RFU, ZEB2 / Fold change vs veh, ZEB2 / RFU, NRIP1 / Fold change vs veh, NRIP1 / RFU, PTTG1IP / Fold change vs veh, PTTG1IP / RFU, CAPN2 / Fold change vs veh, CAPN2 / RFU, MED14 / Fold change vs veh, MED14 / RFU, SNORA58 / Fold change vs veh, SNORA58 / RFU, C1orf63 / Fold change vs veh, C1orf63 / RFU, LRRFIP1 / Fold change vs veh, LRRFIP1 / RFU, NDUFAF7 / Fold change vs veh, NDUFAF7 / RFU, SLC12A2 / Fold change vs veh, SLC12A2 / RFU, IBTK / Fold change vs veh, IBTK / RFU, ESF1 / Fold change vs veh, ESF1 / Fold change vs veh, TMEM50B / RFU, TAOK1 / Fold change vs veh, TAOK1 / RFU, ACBD3 / Fold change vs veh, ACBD3 / RFU, TMA16 / Fold change vs veh, TMA16 / RFU, RWDD3 / Fold change vs veh, RWDD3 / RFU, BCAT1 / Fold change vs veh, BCAT1 / RFU, EDEM3 / Fold change vs veh, EDEM3 / RFU, TMEM33 / Fold change vs veh, TMEM33 / RFU, WDR75 / Fold change vs veh, WDR75 / RFU, AHCTF1 / Fold change vs veh, AHCTF1 / RFU, TFRC / Fold change vs veh, TFRC / RFU, ZDHHC17 / Fold change vs veh, ZDHHC17 / RFU, NOM1 / Fold change vs veh, NOM1 / RFU, ARL8B / Fold change vs veh, ARL8B / RFU, ZBTB11 / Fold change vs veh, ZBTB11 / RFU, TAMM41 / Fold change vs veh, TAMM41 / RFU, KIAA1704 /// LOC100996395 / Fold change vs veh, KIAA1704 /// LOC100996395 / RFU, ING1 / Fold change vs veh, ING1 / RFU, TRMT61B / Fold change vs veh, TRMT61B / RFU, FUBP3 / Fold change vs veh, FUBP3 / RFU, TP53 / Fold change vs veh, TP53 / RFU, TNKS2 / Fold change vs veh, TNKS2 / RFU, ZFP14 / Fold change vs veh, ZFP14 / RFU, ACTR2 / Fold change vs veh, ACTR2 / RFU, PPP3R1 / Fold change vs veh, PPP3R1 / RFU, PIK3R1 / Fold change vs veh, PIK3R1 / RFU, HNRNPA1 / Fold change vs veh, HNRNPA1 / RFU, RNF170 / Fold change vs veh, RNF170 / RFU, ZNF28 / Fold change vs veh, ZNF28 / RFU, RNGTT / Fold change vs veh, RNGTT / RFU, OGT / Fold change vs veh, OGT / RFU, BRD1 / Fold change vs veh, BRD1 / RFU, MARS / Fold change vs veh, MARS / RFU, ZNF655 / Fold change vs veh, ZNF655 / RFU, FAHD1 / Fold change vs veh, FAHD1 / RFU, BDP1 / Fold change vs veh, BDP1 / RFU, LRRCC1 / Fold change vs veh, LRRCC1 / RFU, ARID1A / Fold change vs veh, ARID1A / RFU, ZNF146 / Fold change vs veh, ZNF146 / RFU, ZNF330 / Fold change vs veh, ZNF330 / RFU, GPN3 / Fold change vs veh, GPN3 / RFU, C9orf123 / Fold change vs veh, C9orf123 / RFU, N4BP2L2 / Fold change vs veh, N4BP2L2 / RFU, ARFIP1 / Fold change vs veh, ARFIP1 / RFU, FAM179B / Fold change vs veh, FAM179B / RFU, BCL10 / Fold change vs veh, BCL10 / RFU, UHRF1BP1L / Fold change vs veh, UHRF1BP1L / RFU, BET1 / Fold change vs veh, BET1 / RFU, CNOT2 / Fold change vs veh, CNOT2 / RFU, ZNF268 / Fold change vs veh, ZNF268 / Fold change vs veh, ZNF507 / RFU, DGCR2 / Fold change vs veh, DGCR2 / RFU, WDSUB1 / Fold change vs veh, WDSUB1 / Fold change vs veh, HSP90B1 /// MIR3652 / RFU, ADSS / Fold change vs veh, ADSS / RFU, GK / Fold change vs veh, GK / RFU, ZNF148 / Fold change vs veh, ZNF148 / RFU, TAF9 / Fold change vs veh, TAF9 / RFU, SLC1A5 / Fold change vs veh, SLC1A5 / RFU, SLMO2 / Fold change vs veh, SLMO2 / RFU, ABCC4 / Fold change vs veh, ABCC4 / RFU, LOC101060439 /// RAP1B / Fold change vs veh, LOC101060439 /// RAP1B / RFU, RFX7 / Fold change vs veh, RFX7 / RFU, GTPBP10 / Fold change vs veh, GTPBP10 / RFU, CNEP1R1 / Fold change vs veh, CNEP1R1 / RFU, BIVM-ERCC5 /// ERCC5 / Fold change vs veh, BIVM-ERCC5 /// ERCC5 / RFU, ILF3 / Fold change vs veh, ILF3 / RFU 11762660_at / Fold change /veh 11762660_at / RFU VCAN (11757783_s_at) / Fold change /veh VCAN (11757783_s_at) / RFU DDX43 (11728927_at) / Fold change /veh DDX43 (11728927_at) / RFU KRT8 (11758188_x_at) / Fold change /veh KRT8 (11758188_x_at) / RFU NKD1 (11759106_at) / Fold change /veh NKD1 (11759106_at) / RFU SRD5A1 (11742802_a_at) / Fold change /veh SRD5A1 (11742802_a_at) / RFU TPSAB1 /// TPSB2 (11721975_s_at) / Fold change /veh TPSAB1 /// TPSB2 (11721975_s_at) / RFU GSTM3 (11746129_a_at) / Fold change /veh GSTM3 (11746129_a_at) / RFU IL23R (11737362_x_at) / Fold change /veh IL23R (11737362_x_at) / RFU TMEM51 (11727254_a_at) / Fold change /veh TMEM51 (11727254_a_at) / RFU PIWIL2 (11732686_x_at) / Fold change /veh PIWIL2 (11732686_x_at) / RFU ORM1 (11744905_x_at) / Fold change /veh ORM1 (11744905_x_at) / RFU CCDC152 (11743942_at) / Fold change /veh CCDC152 (11743942_at) / RFU ECM1 (11717891_a_at) / Fold change /veh ECM1 (11717891_a_at) / RFU IL23R (11748794_a_at) / Fold change /veh IL23R (11748794_a_at) / RFU TNFAIP8L3 (11732012_x_at) / Fold change /veh TNFAIP8L3 (11732012_x_at) / RFU MBOAT4 (11741988_at) / Fold change /veh MBOAT4 (11741988_at) / RFU 11764193_at / Fold change /veh 11764193_at / RFU TMEM53 (11763286_at) / Fold change /veh TMEM53 (11763286_at) / RFU MAGEB2 (11727129_at) / Fold change /veh MAGEB2 (11727129_at) / RFU TMEM200A (11744735_a_at) / Fold change /veh TMEM200A (11744735_a_at) / RFU CCDC152 (11751479_a_at) / Fold change /veh CCDC152 (11751479_a_at) / RFU FAM211A (11726209_a_at) / Fold change /veh FAM211A (11726209_a_at) / RFU RGS16 (11746705_a_at) / Fold change /veh RGS16 (11746705_a_at) / RFU VCAN (11755009_s_at) / Fold change /veh VCAN (11755009_s_at) / RFU RHOB (11743442_s_at) / Fold change /veh RHOB (11743442_s_at) / RFU RGS16 (11720943_a_at) / Fold change /veh RGS16 (11720943_a_at) / RFU RGS16 (11720944_at) / Fold change /veh RGS16 (11720944_at) / RFU, VPS4B / Fold change vs veh, VPS4B / RFU, CREB1 / Fold change vs veh, CREB1 / RFU, DNAJC13 / Fold change vs veh, DNAJC13 / RFU, GNAQ / Fold change vs veh, GNAQ / RFU, CDK5R1 / Fold change vs veh, CDK5R1 / RFU, ZRANB3 / Fold change vs veh, ZRANB3 / RFU, CUL4A / Fold change vs veh, CUL4A / RFU, CCNY / Fold change vs veh, CCNY / RFU, UFL1 / Fold change vs veh, UFL1 / RFU, COG3 / Fold change vs veh, COG3 / RFU, DIAPH2 / Fold change vs veh, DIAPH2 / RFU, SKA2 / Fold change vs veh, SKA2 / RFU, AFF3 / Fold change vs veh, AFF3 / RFU, LMF1 / Fold change vs veh, LMF1 / RFU, IPO11 / Fold change vs veh, IPO11 / RFU, DFFB / Fold change vs veh, DFFB / RFU, FOXP1 / Fold change vs veh, FOXP1 / RFU, CARD8 / Fold change vs veh, CARD8 / RFU, STRN3 / Fold change vs veh, STRN3 / RFU, ADK / Fold change vs veh, ADK / RFU, RASSF2 / Fold change vs veh, RASSF2 / RFU, WIPF1 / Fold change vs veh, WIPF1 / RFU, LARP1B / Fold change vs veh, LARP1B / RFU, RASA1 / Fold change vs veh, RASA1 / RFU, RB1 / Fold change vs veh, RB1 / RFU, PPFIA1 / Fold change vs veh, PPFIA1 / RFU, MAT2A / Fold change vs veh, MAT2A / RFU, CCT5 / Fold change vs veh, CCT5 / RFU, WDR92 / Fold change vs veh, WDR92 / RFU, CUX1 / Fold change vs veh, CUX1 / RFU, TTC7A / Fold change vs veh, TTC7A / RFU, TMEM135 / Fold change vs veh, TMEM135 / RFU, DEPTOR / Fold change vs veh, DEPTOR / RFU, CPM / Fold change vs veh, CPM / RFU, DNAJB6 / Fold change vs veh, DNAJB6 / RFU, CACNA2D3 / Fold change vs veh, CACNA2D3 / RFU, DTX4 / Fold change vs veh, DTX4 / RFU, TFCP2 / Fold change vs veh, TFCP2 / RFU, GMCL1 /// GMCL1P1 / Fold change vs veh, GMCL1 /// GMCL1P1 / RFU, AEBP2 / Fold change vs veh, AEBP2 / RFU, SNHG1 /// SNORD22 /// SNORD25 /// SNORD26 /// SNORD27 /// SNORD28 /// SNORD29 /// SNORD31 / Fold change vs veh, SNHG1 /// SNORD22 /// SNORD25 /// SNORD26 /// SNORD27 /// SNORD28 /// SNORD29 /// SNORD31 / Fold change (Aza/veh), C12orf56 (ProbeSet 11735607_a_at) / Fold change (ACY-1035/veh), C12orf56 (ProbeSet 11735607_a_at) / Fold change (Aza/veh), FGFR1OP (ProbeSet 11751329_s_at) / Fold change (ACY-1035/veh), FGFR1OP (ProbeSet 11751329_s_at) / Fold change (Aza/veh), VPS36 (ProbeSet 11739960_a_at) / Fold change (ACY-1035/veh), VPS36 (ProbeSet 11739960_a_at) / RFU SYPL1 (11715823_x_at) / Fold change /veh SYPL1 (11715823_x_at) / RFU IGFBP7 (11715501_s_at) / Fold change /veh IGFBP7 (11715501_s_at) / RFU REEP3 (11722064_at) / Fold change /veh REEP3 (11722064_at) / RFU IGLL1 (11728026_x_at) / Fold change /veh IGLL1 (11728026_x_at): dose or concentration left out as unconfirmed. The following applies: ProbeSet 11733108_at; LIST D.

The values that follow come from PMC5218480 (PLoS ONE, 2017).

As to `Nc1ccc(-c2cccs2)cc1NC(=O)c1ccc2c(c1)cc(C1CC1)n2CCN1CCOCC1` [ACY-1035], the “RFU, GNAQ” value is 275.03 RFU.
